Measured values taken from patent US20240343681A1, “MOLECULES HAVING PESTICIDAL UTILITY AND INTERMEDIATES AND PROCESSES RELATED THERETO” (priority 2021, published 2024).

System: Beet Armyworm (Spodoptera exigua, LAPHEG) second instar larva
Assay: Bioassay on beet armyworm (BAW), 128-well diet tray assay
Format: in vivo
Settings: 50 μg/cm^2 on artificial diet, 25° C., five days
Protocol: Example A: Bioassays on Beet Armyworm (Spodoptera exigua, LAPHEG) (“BAW”) and Cabbage Looper (Trichoplusia ni, TRIPNI) (“CL”)
Bioassays on BAW were conducted using a 128-well diet tray assay. One second instar BAW larva was placed in each well (8 wells total) of the diet tray that had been previously filled with 1 mL of artificial diet to which 50 μg/cm^2 of the test molecule (dissolved in 50 μL of 90:10 acetone-water mixture) had been applied (to each of eight wells) and then allowed to dry. Trays were covered with a clear self-adhesive cover, vented to allow gas exchange, and held at 25° C., 14:10 light-dark for five days. Percent mortality was recorded for the larvae in each well; activity in the eight wells was then averaged.

| SMILES | activity against BAW (percent mortality, averaged over eight wells) |
| --- | --- |
| O=C(Nc1cc(NC(=O)[C@H]2[C@H](c3cc(Cl)cc(Cl)c3)C2(Cl)Cl)ccc1Cl)c1ccccc1 (racemic) [F87, trans-rac-N-(2-Chloro-5-(2,2-dichloro-3-(3,5-dichlorophenyl)cyclopropane-1-carboxamido)phenyl)benzamide] | exhibited activity |
| CC(CC(F)(F)F)C(=O)Nc1cc(NC(=O)C2C(c3cc(Cl)cc(Cl)c3)C2(Cl)Cl)ccc1Cl (racemic) [F8, trans-rac-2,2-Dichloro-N-(4-chloro-3-(4,4,4-trifluoro-2-methylbutanamido)phenyl)-3-(3,5-dichlorophenyl)cyclopropane-1-carboxamide] | exhibited activity |
| Nc1c(F)ccc(C(=O)Nc2cc(NC(=O)[C@H]3[C@H](c4ccc(F)c(C(F)(F)F)c4)C3(Cl)Cl)ccc2Cl)c1F [F103, 3-amino-N-(2-chloro-5-((1R,3R)-2,2-dichloro-3-(4-fluoro-3-(trifluoromethyl)phenyl)cyclopropane-1-carboxamido)phenyl)-2,4-difluorobenzamide] | exhibited activity |
| CCOC(C)C(=O)Nc1c(F)ccc(NC(=O)[C@H]2[C@H](c3cc(Cl)c(Cl)c(Cl)c3)C2(Cl)Cl)c1F (stereo partly drawn) [F12, (1R,3R)-2,2-Dichloro-N-(3-(2-ethoxypropanamido)-2,4-difluorophenyl)-3-(3,4,5-trichlorophenyl)cyclopropane-1-carboxamide] | exhibited activity |
| COCC(=O)Nc1c(F)ccc(C(=O)Nc2cc(NC(=O)[C@H]3[C@H](c4ccc(F)c(C(F)(F)F)c4)C3(Cl)Cl)ccc2Cl)c1F [F105, N-(2-chloro-5-((1R,3R)-2,2-dichloro-3-(4-fluoro-3-(trifluoromethyl)phenyl)cyclopropane-1-carboxamido)phenyl)-2,4-difluoro-3-(2-methoxyacetamido)benzamide] | exhibited activity |
| Cc1cc(C#N)ccc1C(=O)Nc1cc(NC(=O)[C@H]2[C@H](c3ccc(F)c(C(F)(F)F)c3)C2(Cl)Cl)ccc1Cl [F97, N-(2-Chloro-5-((1R,3R)-2,2-dichloro-3-(4-fluoro-3-(trifluoromethyl)phenyl)cyclopropane-1-carboxamido)phenyl)-4-cyano-2-methylbenzamide] | exhibited activity |
| O=C(CN1CCOCC1)Nc1cc(NC(=O)[C@H]2[C@H](c3cc(Cl)cc(Cl)c3)C2(Cl)Cl)ccc1F (racemic) [F63, trans-rac-2,2-Dichloro-3-(3,5-dichlorophenyl)-N-(4-fluoro-3-(2-morpholinoacetamido)phenyl)cyclopropane-1-carboxamide] | exhibited activity |
| O=C(Nc1cc(NC(=O)[C@H]2[C@H](c3ccc(F)c(C(F)(F)F)c3)C2(Cl)Cl)ccc1Cl)c1ccc(F)c(NC(=O)C(F)F)c1F [F104, N-(2-chloro-5-((1R,3R)-2,2-dichloro-3-(4-fluoro-3-(trifluoromethyl)phenyl)cyclopropane-1-carboxamido)phenyl)-3-(2,2-difluoroacetamido)-2,4-difluorobenzamide] | exhibited activity |
| CC(C(=O)Nc1cc(NC(=O)C2C(c3cc(Cl)cc(Cl)c3)C2(Cl)Cl)ccc1Cl)C(F)(F)F (racemic) [F6, trans-rac-2,2-Dichloro-N-(4-chloro-3-(3,3,3-trifluoro-2-methylpropanamido)phenyl)-3-(3,5-dichlorophenyl)cyclopropane-1-carboxamide] | exhibited activity |
| O=C(Nc1cc(NC(=O)[C@@H]2[C@@H](c3ccc(F)c(C(F)(F)F)c3)C2(Cl)Cl)ccc1Cl)c1cnc(F)c(F)c1 [F110, N-(2-Chloro-5-((1S,3S)-2,2-dichloro-3-(4-fluoro-3-(trifluoromethyl)phenyl)cyclopropane-1-carboxamido)phenyl)-5,6-difluoronicotinamide] | exhibited activity |
| CC(CC(=O)Nc1cc(NC(=O)[C@H]2[C@H](c3ccc(F)c(C(F)(F)F)c3)C2(Cl)Cl)ccc1Cl)C(F)(F)F (stereo partly drawn) [F102, (1R,3R)-2,2-Dichloro-N-(4-chloro-3-(4,4,4-trifluoro-3-methylbutanamido)phenyl)-3-(4-fluoro-3-(trifluoromethyl)phenyl)cyclopropane-1-carboxamide] | exhibited activity |
| Cc1cc(C)cc(C(=O)Nc2cc(NC(=O)[C@H]3[C@H](c4cc(Cl)cc(Cl)c4)C3(Cl)Cl)ccc2Cl)c1 (racemic) [F76, trans-rac-N-(2-Chloro-5-(2,2-dichloro-3-(3,5-dichlorophenyl)cyclopropane-1-carboxamido)phenyl)-3,5-dimethylbenzamide] | exhibited activity |
| Cc1cc(C#N)ccc1C(=O)N(C)c1cc(NC(=O)[C@H]2[C@H](c3cc(Cl)cc(Cl)c3)C2(Cl)Cl)ccc1Cl (racemic) [F93, trans-rac-N-(2-Chloro-5-(2,2-dichloro-3-(3,5-dichlorophenyl)cyclopropane-1-carboxamido)phenyl)-4-cyano-N,2-dimethylbenzamide] | exhibited activity |
| C=CCC(=O)Nc1cc(NC(=O)[C@H]2[C@H](c3cc(Cl)cc(Cl)c3)C2(Cl)Cl)ccc1Cl (racemic) [F47, trans-rac-N-(3-But-3-enamido-4-chlorophenyl)-2,2-dichloro-3-(3,5-dichlorophenyl)cyclopropane-1-carboxamide] | exhibited activity |
| CC(=O)NCC(=O)Nc1cc(NC(=O)[C@H]2[C@H](c3cc(Cl)cc(Cl)c3)C2(Cl)Cl)ccc1Cl (racemic) [F51, trans-rac-N-(3-(2-Acetamidoacetamido)-4-chlorophenyl)-2,2-dichloro-3-(3,5-dichlorophenyl)cyclopropane-1-carboxamide] | exhibited activity |
| O=C(Nc1cc(NC(=O)[C@H]2[C@H](c3cc(Cl)cc(Cl)c3)C2(Cl)Cl)ccc1Cl)c1ccncn1 (racemic) [F32, trans-rac-N-(2-Chloro-5-(2,2-dichloro-3-(3,5-dichlorophenyl)cyclopropane-1-carboxamido)phenyl)pyrimidine-4-carboxamide] | exhibited activity |
| CC(CC(=O)N(C)c1cc(NC(=O)C2C(c3cc(Cl)cc(Cl)c3)C2(Cl)Cl)ccc1Cl)C(F)(F)F (racemic) [F92, trans-rac-2,2-dichloro-N-(4-chloro-3-(4,4,4-trifluoro-N,3-dimethylbutanamido)phenyl)-3-(3,5-dichlorophenyl)cyclopropane-1-carboxamide] | exhibited activity |
| O=C(Nc1cc(NC(=O)C2C(c3cc(Cl)cc(Cl)c3)C2(Cl)Cl)ccc1Cl)C1CCCN1CC(F)(F)F (racemic) [F52, trans-rac-N-(2-Chloro-5-(2,2-dichloro-3-(3,5-dichlorophenyl)cyclopropane-1-carboxamido)phenyl)-1-(2,2,2-trifluoroethyl)pyrrolidine-2-carboxamide] | exhibited activity |
| O=C(Nc1cc(NC(=O)[C@H]2[C@H](c3cc(Cl)cc(Cl)c3)C2(Cl)Cl)ccc1Cl)c1cc(F)cc(F)c1 (racemic) [F26, trans-rac-N-(2-chloro-5-(2,2-dichloro-3-(3,5-dichlorophenyl)cyclopropane-1-carboxamido)phenyl)-3,5-difluorobenzamide] | exhibited activity |
| O=C(Nc1cc(NC(=O)[C@H]2[C@H](c3cc(Cl)cc(Cl)c3)C2(Cl)Cl)ccc1Cl)c1cccc(C(F)(F)F)c1 (racemic) [F81, trans-rac-N-(2-Chloro-5-(2,2-dichloro-3-(3,5-dichlorophenyl)cyclopropane-1-carboxamido)phenyl)-3-(trifluoromethyl)benzamide] | exhibited activity |
| O=C(Nc1cc(NC(=O)[C@H]2[C@H](c3cc(Cl)cc(Cl)c3)C2(Cl)Cl)ccc1Cl)c1ccc(F)cc1F (racemic) [F24, trans-rac-N-(2-Chloro-5-(2,2-dichloro-3-(3,5-dichlorophenyl)cyclopropane-1-carboxamido)phenyl)-2,4-difluorobenzamide] | exhibited activity |
| O=C(Cc1c(F)cc(F)cc1F)Nc1cc(NC(=O)[C@H]2[C@H](c3cc(Cl)cc(Cl)c3)C2(Cl)Cl)ccc1Cl (racemic) [F49, trans-rac-2,2-Dichloro-N-(4-chloro-3-(2-(2,4,6-trifluorophenyl)acetamido)phenyl)-3-(3,5-dichlorophenyl)cyclopropane-1-carboxamide] | exhibited activity |
| O=C(Nc1cc(NC(=O)[C@H]2[C@H](c3cc(Cl)cc(Cl)c3)C2(Cl)Cl)ccc1Cl)c1ccco1 (racemic) [F34, trans-rac-N-(2-Chloro-5-(2,2-dichloro-3-(3,5-dichlorophenyl)cyclopropane-1-carboxamido)phenyl)furan-2-carboxamide] | exhibited activity |
| O=C(Nc1cc(NC(=O)[C@H]2[C@H](c3cc(Cl)cc(Cl)c3)C2(Cl)Cl)ccc1Cl)c1cc(=O)[nH]o1 (racemic) [F37, trans-rac-N-(2-Chloro-5-(2,2-dichloro-3-(3,5-dichlorophenyl)cyclopropane-1-carboxamido)phenyl)-3-oxo-2,3-dihydroisoxazole-5-carboxamide] | exhibited activity |
